The text below walks through data of patent US20110312914A1, “CARBON MONOXIDE REMOVAL AGENT” (priority 2009, published 2011).

Data set [1] has as its target T1, Serum albumin (RSA) (Rattus norvegicus, UniProt P02770).
T1 construct: purchased SIGMA; Co., Ltd
Briefly: ultraviolet-visible titration of FeTPPS solution with RSA solution. It is filed as binding. The following applies: 5×10^−6 M FeTPPS, PBS buffer pH 7.4. The source says:
Serum albumin (RSA) is a protein component of the highest content in blood and is known to have a property of taking in various hydrophobic molecules. FeTPPS is not an exception and is known to bind strongly to serum albumin (see, for example, V. E. Yushmanov et al, Mag. Res. Imaging, 14, 255-261 (1996), T. T. Tominaga et al, J. Inorg. Biochem., 65, 235-244 (1997), etc.). The effect of inducing urinary excretion of FeTPPS by Py3CD was thus compared with that by RSA. Specifically, an experiment was performed as follows.
FeTPPS was dissolved in a PBS buffer (pH 7.4) to prepare a 5 μM solution, and Py3CD and RSA (made by SIGMA. Co., Ltd.) were separately dissolved in the PBS buffer (pH 7.4) to prepare respective stock solutions. Ultraviolet-visible absorption spectra were measured with the same apparatuses as those used in EXAMPLE 1.
The FeTPPS solution was placed in a cuvette, ultraviolet-visible absorption spectra were measured while adding fixed amounts of the RSA solution to the cuvette, and at a point at which changes reached saturation, ultraviolet-visible absorption spectra were measured while adding the Py3CD solution in place of the RSA solution. FIG. 4(a) is a diagram showing the changes in the ultraviolet-visible absorption spectra and FIG. 4(b) is a titration plot.

Data set [2] can be described thus: effect of the cyclodextrin dimer on the urinary excretion of porphyrins, absorbance at 420 nm of urine. It is filed as in vivo. The following applies: rat, medical agent containing just the porphyrin (0.5 mM) administered, before Py3CD. How it is done:
The influence that the cyclodextrin dimer has on the excretion of the carbon monoxide removal agent in urine was examined. Specifically, each of the porphyrins was administered solitarily into a rat and absorbance at 420 nm, at which each administered porphyrin has a strong absorption band, was measured to examine the amount of the porphyrin excreted into urine. Also, after administration of each porphyrin, the cyclodextrin dimer was administered and the influence thereof was examined. Specifically, an experiment was performed as follows.
Commercially available FeTPPS (made by Frontier Scientific Inc.) and TPPS (made by Tokyo Chemical Industry Co., Ltd.) with the central metal removed from FeTPPS were respectively dissolved separately to a concentration of 0.5 mM in a PBS buffer (pH 7.4) and thereby prepared as medical agents. Also, a Py3CD solution was prepared by dissolving Py3CD to a concentration of 0.6 mM in the PBS buffer (pH 7.4). Further, ultraviolet-visible absorption spectra were measured using the same apparatuses as in EXAMPLE 1.
The medical agent containing FeTPPS was administered continuously to a rat by the syringe pump (1 mL/min). By the same method as in EXAMPLE 1, urine was sampled every 30 minutes from the start of administration and the change with time of the absorbance at 420 nm was examined. […]

Data set [3] can be described thus: diafiltration test, kidney model using an ultrafiltration membrane (molecular weight cutoff 30,000). It is filed as in vitro ADME. How it is done: The mechanism by which the carbon monoxide removal agent according to the present invention is excreted from blood into urine via kidneys was examined by way of a kidney model using an ultrafiltration membrane. Specifically, an experiment was performed as follows.
FeTPPS, RSA, and Py3CD (procured from the same firms as in EXAMPLE 3) were respectively dissolved in a PBS buffer (pH 7.4) to prepare 0.22 μM solutions. Also, ultraviolet-visible absorption spectra were measured using the same apparatuses as in EXAMPLE 1. As the ultrafiltration membrane, a stirred cell (Model 8050 made by Millipore Corp.) with an ultrafiltration membrane with a molecular weight cutoff of 30,000 attached was used.
Equivalent amounts of the FeTPPS solution and the RSA solution were mixed to prepare an equimolar mixture, and the equimolar mixture solution was placed in the stirred cell that was set above a recovery beaker. While pressurizing with nitrogen gas, a filtrate was recovered at every fixed amount and subject to ultraviolet-visible absorption spectral analysis.
At a point at which 20 mL of the filtrate was recovered, the Py3CD solution was added so that the molar amount of Py3CD was equal to the molar amount of each of FeTPPS and RSA in the residual solution. […]

T1 sequence (P02770 25-608): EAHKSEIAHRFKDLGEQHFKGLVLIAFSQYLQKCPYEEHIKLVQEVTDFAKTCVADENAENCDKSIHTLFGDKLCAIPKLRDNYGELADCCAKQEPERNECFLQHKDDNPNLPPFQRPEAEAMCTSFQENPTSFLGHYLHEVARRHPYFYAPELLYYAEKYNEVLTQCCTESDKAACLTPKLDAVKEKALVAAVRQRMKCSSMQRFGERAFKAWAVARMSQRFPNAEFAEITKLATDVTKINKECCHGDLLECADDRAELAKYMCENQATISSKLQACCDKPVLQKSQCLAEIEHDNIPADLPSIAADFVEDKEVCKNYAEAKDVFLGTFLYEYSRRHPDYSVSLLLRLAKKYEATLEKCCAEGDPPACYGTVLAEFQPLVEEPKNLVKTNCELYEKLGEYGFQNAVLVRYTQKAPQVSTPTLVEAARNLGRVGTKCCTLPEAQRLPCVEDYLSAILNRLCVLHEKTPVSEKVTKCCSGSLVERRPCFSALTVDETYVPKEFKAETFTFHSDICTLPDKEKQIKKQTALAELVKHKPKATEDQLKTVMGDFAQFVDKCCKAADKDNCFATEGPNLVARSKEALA

Regarding “5,10,15,20-tetrakis(4-sulfonatophenyl)porphyrin (II) iron complex [FeTPPS]”, in data set [1], the “RSA amount at which the spectral changes reach saturation” value is reported as “approximately ⅓” and the “number of FeTPPS molecules that can bind to a single RSA molecule” value is “approximately three”. The “excretion of porphyrin in urine” value in data set [2] is reported as “not excreted at all in urine”. In addition, in data set [3] (FeTPPS held by RSA (equimolar mixture), before Py3CD addition), the “passage through the ultrafiltration membrane” value was “cannot pass through the ultrafiltration membrane”. For the same molecule, in data set [3] (FeTPPS released from RSA by addition of Py3CD and included in Py3CD), the “passage through the ultrafiltration membrane” value is “capable of passing through the ultrafiltration membrane”.

Turning to `O=S(=O)(O)c1ccc(-c2c3nc(c(-c4ccc(S(=O)(=O)O)cc4)c4ccc([nH]4)c(-c4ccc(S(=O)(=O)O)cc4)c4nc(c(-c5ccc(S(=O)(=O)O)cc5)c5ccc2[nH]5)C=C4)C=C3)cc1` [TPPS, reference compound], in data set [2], the “excretion of porphyrin in urine” value is recorded as “not excreted at all in urine”.
